Test results from paper PMC8536830 (Current Biology, 2021).

How the values were obtained:
Type in all cases: cell-based, C. elegans
LGC-50:MOD-1(363-397) = target: T1, LGC-50:MOD-1(363-397) (Caenorhabditis elegans, UniProt P41849); test: Two-electrode voltage clamp, 5-HT evoked dose response, LGC-50:MOD-1(363-397) chimera; settings: Xenopus oocytes, TEVC
T1 sequence (P41849 with tags, fused parts or gaps): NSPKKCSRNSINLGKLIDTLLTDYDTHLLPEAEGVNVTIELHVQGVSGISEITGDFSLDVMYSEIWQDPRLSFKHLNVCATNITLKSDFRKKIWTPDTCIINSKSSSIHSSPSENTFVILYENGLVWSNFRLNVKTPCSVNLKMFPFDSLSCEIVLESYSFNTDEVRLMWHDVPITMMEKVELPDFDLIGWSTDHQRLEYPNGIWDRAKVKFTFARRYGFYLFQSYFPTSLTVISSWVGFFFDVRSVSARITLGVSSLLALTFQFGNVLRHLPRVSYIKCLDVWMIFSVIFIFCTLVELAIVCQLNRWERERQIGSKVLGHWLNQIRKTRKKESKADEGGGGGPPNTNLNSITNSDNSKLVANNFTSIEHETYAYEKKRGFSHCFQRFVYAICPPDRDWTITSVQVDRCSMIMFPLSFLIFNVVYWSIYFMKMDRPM
T1 sequence (Q9GQ00 363-397 partner): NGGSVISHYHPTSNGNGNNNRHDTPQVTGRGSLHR
Experimental: Defolliculated Xenopus laevis oocytes were obtained from EcoCyte Bioscience (Dortmund, Germany) and maintained in ND96 (in mM: 96 NaCl, 1 MgCl2, 5 HEPES, 1.8 CaCl2, 2 KCl) solution at 16°C for 3-5 days.
5'-capped cRNA was synthesized in vitro using the T3 mMessage mMachine transcription kit according to manufacturer’s protocol (Thermo Fischer Scientific, CA, USA). RNA was then purified using the GeneJET RNA purification kit (Thermo Fischer Scientific, CA, USA) prior to cRNA injection. Defolliculated Xenopus oocytes were placed individually into 96 well plates and injected with 50nL of 500ng/μL RNA using the Roboinject system (Multi Channel Systems GmbH, Reutlingen, Germany). […]
(§1) Two-electrode voltage clamp recordings were carried out using the Robocyte2 recording system or a manual TEVC set up, using an OC-725D amplifier (Multi Channel Systems, Reutlingen, Germany) and paired with a custom-made recording chamber and agar bridges from reference and bath electrodes. […] Data was recorded using WinWCP or RoboCyte2 control software, manual data was filtered at 10 Hz.
Dose response curves were calculated from the peak current during a 10 s agonist stimulation in ND96 solution, with a 60 s ND96 wash in between doses. […] Normalized dose response data was fitted to a nonlinear curve using a four parameters variable slope and the EC50 and Hill slope was calculated. […]

[1] = target: T2, LGC-50 S335A, T348A, S353A (Caenorhabditis elegans, UniProt P41849, S335A/S353A/T348A); test: Two-electrode voltage clamp, 5-HT evoked dose response, LGC-50 phospho-dead mutant
T2 construct: Plasmid: KSM: lgc-50 (cDNA, S335A, T348A, S353A); expressed in transfected cells; host or cells: Xenopus laevis oocytes injected with cRNA (plasmid pIH128)
Excerpt: (§2) In addition to this region, we also investigated three upstream predicted phosphorylation sites. Phosphorylation of the M3/4 loop has previously been implicated in the trafficking and cell surface recycling of GABAA receptors.[23]^,[24] The first site in the M3/4 loop of LGC-50, S335, is predicted to be a cdc2 site, and T348 and S353 are predicted protein kinase C (PKC) or PKA sites (Table S2).[25]^,[26] We introduced both phosphorylation-dead alanine mutations and phosphomimic aspartate mutations into these sites to assess their effect on receptor trafficking. […]
as §1
(§3) Dose response curves were calculated from the peak current during a 10 s agonist stimulation in ND96 solution, with a 60 s ND96 wash in between doses. […] Normalized dose response data was fitted to a nonlinear curve using a four parameters variable slope and the EC50 and Hill slope was calculated. […] Kinetic measurements were calculated from a 60 s agonist perfusion. […]

[2] = target: T3, LGC-50 S335D, T348D, S353A (Caenorhabditis elegans, UniProt P41849, S335D/S353A/); test: Two-electrode voltage clamp, 5-HT evoked dose response, LGC-50 phosphomimic mutant
T3 construct: Plasmid: KSM: lgc-50 (cDNA, S335D, T348A, S353A); expressed in transfected cells; host or cells: Xenopus laevis oocytes injected with cRNA (probably plasmid pIH134)
Excerpt: as §2, §1, §3

T2 sequence (P41849 20-491 S335A/T348A/S353A): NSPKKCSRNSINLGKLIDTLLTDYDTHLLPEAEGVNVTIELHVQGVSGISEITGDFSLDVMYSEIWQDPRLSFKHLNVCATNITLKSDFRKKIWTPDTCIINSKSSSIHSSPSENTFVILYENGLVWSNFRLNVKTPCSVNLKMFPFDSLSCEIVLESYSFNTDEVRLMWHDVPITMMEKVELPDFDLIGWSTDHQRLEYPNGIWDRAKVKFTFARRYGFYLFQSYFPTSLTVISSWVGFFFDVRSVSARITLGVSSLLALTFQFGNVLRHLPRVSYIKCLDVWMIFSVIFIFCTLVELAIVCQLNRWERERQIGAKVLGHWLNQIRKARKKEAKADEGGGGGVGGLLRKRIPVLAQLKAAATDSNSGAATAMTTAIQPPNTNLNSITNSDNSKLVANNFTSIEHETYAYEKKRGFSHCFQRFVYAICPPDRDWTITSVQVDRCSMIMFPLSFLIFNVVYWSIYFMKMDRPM
T3 sequence (P41849 20-491 S335D/T348A/S353A): as the sequence (P41849 20-491 S335A/T348A/S353A) above, with A316D counted along it

Question: How did the EC50 (LGC-50:MOD-1(363-397)) turn out when NCCc1c[nH]c2ccc(O)cc12 [5-HT, serotonin] was run?
Answer: The EC50 was 980 nM.

Question: And the EC50 [1]?
Answer: Its EC50 is 570 nM.

Question: And the EC50 [2]?
Answer: The EC50 was 720 nM.
